According to the supplement of paper PMC10883282:

Assays:
Assay in all cases: relative viability vs DMSO control (72 h) (fraction); higher = more viable cells
[1] = system: A204
How it was run: (§1)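 ATPLite readings, expressed as percent growth and averaged over up to triplicate wells, provided relative viability. Before reading, sarcoma cell lines seeded in 384-well plates to reach 80–90% confluence received 2.5 µl of serially diluted compound after 24 h, from source plates of 10 mM to 0.0002 mM. Plates were held 72 h at 37 °C, 5% CO2, with 0.1% DMSO as vehicle and a 5 µM positive control. The data were rescaled to 1 for full and 0 for none.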

[2] = system: G401
How it was run: as §1

[3] = system: HS729
How it was run: as §1

[4] = system: HT1080
How it was run: as §1

[5] = system: KHOS-NP
How it was run: as §1

[6] = system: MES-SA
How it was run: as §1

[7] = system: SK-LMS-1
How it was run: as §1

[8] = system: SW1353
How it was run: as §1

[9] = system: SW684
How it was run: as §1

[10] = system: SW872
How it was run: as §1

[11] = system: SYO-1
How it was run: as §1

[12] = system: VA-ES-BJ
How it was run: as §1

Cn1cc(C2=C(c3cn(C4CCN(Cc5ccccn5)CC4)c4ccccc34)C(=O)NC2=O)c2ccccc21 [Enzastaurin]
Conditions | relative viability
[1], 0.00017 µM | 1.07
[1], 0.00051 µM | 1.13
[1], 0.00152 µM | 1.13
[1], 0.00457 µM | 1.12
[1], 0.01372 µM | 1.11
[1], 0.04115 µM | 1.07
[1], 0.1235 µM | 1.07
[1], 0.3704 µM | 1.1
[1], 1.111 µM | 1.09
[1], 3.333 µM | 1.08
[1], 10 µM | 0.906
[2], 0.00017 µM | 1.08
[2], 0.00051 µM | 1.1
[2], 0.00152 µM | 1.07
[2], 0.00457 µM | 1.04
[2], 0.01372 µM | 1.05
[2], 0.04115 µM | 1.05
[2], 0.1235 µM | 1.09
[2], 0.3704 µM | 1.06
[2], 1.111 µM | 1.13
[2], 3.333 µM | 1.21
[2], 10 µM | 1.31
[3], 0.00017 µM | 1.06
[3], 0.00051 µM | 1.09
[3], 0.00152 µM | 1.07
[3], 0.00457 µM | 1.07
[3], 0.01372 µM | 1.05
[3], 0.04115 µM | 1.05
[3], 0.1235 µM | 1.01
[3], 0.3704 µM | 1.02
[3], 1.111 µM | 1.06
[3], 3.333 µM | 1.13
[3], 10 µM | 1.15
[4], 0.00017 µM | 1.14
[4], 0.00051 µM | 1.14
[4], 0.00152 µM | 1.11
[4], 0.00457 µM | 1.11
[4], 0.01372 µM | 1.12
[4], 0.04115 µM | 1.14
[4], 0.1235 µM | 1.14
[4], 0.3704 µM | 1.11
[4], 1.111 µM | 1.15
[4], 3.333 µM | 1.37
[4], 10 µM | 1.365
[5], 0.00017 µM | 1.12
[5], 0.00051 µM | 1.13
[5], 0.00152 µM | 1.12
[5], 0.00457 µM | 1.131
[5], 0.01372 µM | 1.14
[5], 0.04115 µM | 1.12
[5], 0.1235 µM | 1.13
[5], 0.3704 µM | 1.12
[5], 1.111 µM | 1.11
[5], 3.333 µM | 1.1
[5], 10 µM | 1.1
[6], 0.00017 µM | 1.01
[6], 0.00051 µM | 0.997
[6], 0.00152 µM | 0.994
[6], 0.00457 µM | 0.99
[6], 0.01372 µM | 0.959
[6], 0.04115 µM | 1.003
[6], 0.1235 µM | 0.942
[6], 0.3704 µM | 0.97
[6], 1.111 µM | 0.952
[6], 3.333 µM | 0.964
[6], 10 µM | 0.659
[7], 0.00017 µM | 1.08
[7], 0.00051 µM | 1.07
[7], 0.00152 µM | 1.07
[7], 0.00457 µM | 1.04
[7], 0.01372 µM | 1.047
[7], 0.04115 µM | 1.071
[7], 0.1235 µM | 1.05
[7], 0.3704 µM | 1.06
[7], 1.111 µM | 0.9757
[7], 3.333 µM | 0.841
[7], 10 µM | 0.746
[8], 0.00017 µM | 1.1
[8], 0.00051 µM | 1.09
[8], 0.00152 µM | 1.104
[8], 0.00457 µM | 1.1
[8], 0.01372 µM | 1.08
[8], 0.04115 µM | 1.09
[8], 0.1235 µM | 1.07
[8], 0.3704 µM | 1.04
[8], 1.111 µM | 0.949
[8], 3.333 µM | 0.857
[8], 10 µM | 0.809
[9], 0.00017 µM | 1.17
[9], 0.00051 µM | 1.18
[9], 0.00152 µM | 1.22
[9], 0.00457 µM | 1.18
[9], 0.01372 µM | 1.2
[9], 0.04115 µM | 1.17
[9], 0.1235 µM | 1.17
[9], 0.3704 µM | 1.18
[9], 1.111 µM | 1.11
[9], 3.333 µM | 0.956
[9], 10 µM | 0.944
[10], 0.00017 µM | 1.07
[10], 0.00051 µM | 1.09
[10], 0.00152 µM | 1.08
[10], 0.00457 µM | 1.06
[10], 0.01372 µM | 1.01
[10], 0.04115 µM | 1.08
[10], 0.1235 µM | 1.04
[10], 0.3704 µM | 1.09
[10], 1.111 µM | 1.05
[10], 3.333 µM | 1.06
[10], 10 µM | 0.96
[11], 0.00017 µM | 1.04
[11], 0.00051 µM | 1.016
[11], 0.00152 µM | 0.999
[11], 0.00457 µM | 0.9983
[11], 0.01372 µM | 0.971
[11], 0.04115 µM | 0.989
[11], 0.1235 µM | 0.959
[11], 0.3704 µM | 0.983
[11], 1.111 µM | 1.01
[11], 3.333 µM | 0.96
[11], 10 µM | 0.929
[12], 0.00017 µM | 1.08
[12], 0.00051 µM | 1.12
[12], 0.00152 µM | 1.11
[12], 0.00457 µM | 1.09
[12], 0.01372 µM | 1.07
[12], 0.04115 µM | 1.06
[12], 0.1235 µM | 1.06
[12], 0.3704 µM | 1.08
[12], 1.111 µM | 1.11
[12], 3.333 µM | 1.19
[12], 10 µM | 1.21

CC1(COc2ccc3c(c2)ncn3-c2ccc3cccc(N4CCC(N)CC4)c3n2)COC1 [Crenolanib]
Conditions | relative viability
[1], 0.00017 µM | 1.085
[1], 0.00051 µM | 1.07
[1], 0.00152 µM | 1.08
[1], 0.00457 µM | 1.05
[1], 0.01372 µM | 1.01
[1], 0.04115 µM | 0.819
[1], 0.1235 µM | 0.594
[1], 0.3704 µM | 0.457
[1], 1.111 µM | 0.403
[1], 3.333 µM | 0.326
[1], 10 µM | 0.016
[2], 0.00017 µM | 0.968
[2], 0.00051 µM | 0.935
[2], 0.00152 µM | 0.951
[2], 0.00457 µM | 0.942
[2], 0.01372 µM | 0.955
[2], 0.04115 µM | 0.981
[2], 0.1235 µM | 0.972
[2], 0.3704 µM | 0.99
[2], 1.111 µM | 0.95
[2], 3.333 µM | 0.934
[2], 10 µM | 0.0201
[3], 0.00017 µM | 0.96
[3], 0.00051 µM | 0.973
[3], 0.00152 µM | 1.03
[3], 0.00457 µM | 0.992
[3], 0.01372 µM | 1.01
[3], 0.04115 µM | 0.98
[3], 0.1235 µM | 0.97
[3], 0.3704 µM | 1.01
[3], 1.111 µM | 1.034
[3], 3.333 µM | 0.983
[3], 10 µM | 0.901
[4], 0.00017 µM | 1.01
[4], 0.00051 µM | 1.03
[4], 0.00152 µM | 1.04
[4], 0.00457 µM | 1.03
[4], 0.01372 µM | 1.02
[4], 0.04115 µM | 1.02
[4], 0.1235 µM | 1.02
[4], 0.3704 µM | 1.05
[4], 1.111 µM | 1.04
[4], 3.333 µM | 0.811
[4], 10 µM | 0.0545
[5], 0.00017 µM | 1.05
[5], 0.00051 µM | 1.03
[5], 0.00152 µM | 1.02
[5], 0.00457 µM | 1.05
[5], 0.01372 µM | 1.03
[5], 0.04115 µM | 1.01
[5], 0.1235 µM | 0.998
[5], 0.3704 µM | 0.946
[5], 1.111 µM | 0.765
[5], 3.333 µM | 0.605
[5], 10 µM | 0.511
[6], 0.00017 µM | 0.919
[6], 0.00051 µM | 0.919
[6], 0.00152 µM | 0.9274
[6], 0.00457 µM | 0.971
[6], 0.01372 µM | 0.9531
[6], 0.04115 µM | 0.94
[6], 0.1235 µM | 0.98
[6], 0.3704 µM | 1.05
[6], 1.111 µM | 1.03
[6], 3.333 µM | 0.475
[6], 10 µM | 0.0499
[7], 0.00017 µM | 0.98
[7], 0.00051 µM | 1.05
[7], 0.00152 µM | 1.036
[7], 0.00457 µM | 1.04
[7], 0.01372 µM | 1.03
[7], 0.04115 µM | 1.03
[7], 0.1235 µM | 1.07
[7], 0.3704 µM | 1.02
[7], 1.111 µM | 0.967
[7], 3.333 µM | 0.8
[7], 10 µM | 0.0424
[8], 0.00017 µM | 0.968
[8], 0.00051 µM | 0.959
[8], 0.00152 µM | 0.938
[8], 0.00457 µM | 0.97
[8], 0.01372 µM | 0.949
[8], 0.04115 µM | 0.917
[8], 0.1235 µM | 0.92
[8], 0.3704 µM | 0.84
[8], 1.111 µM | 0.813
[8], 3.333 µM | 0.683
[8], 10 µM | 0.009
[9], 0.00017 µM | 1.02
[9], 0.00051 µM | 1.05
[9], 0.00152 µM | 1.08
[9], 0.00457 µM | 1.04
[9], 0.01372 µM | 1.04
[9], 0.04115 µM | 1.05
[9], 0.1235 µM | 1.08
[9], 0.3704 µM | 1.1
[9], 1.111 µM | 1.15
[9], 3.333 µM | 0.978
[9], 10 µM | 0.423
[10], 0.00017 µM | 1.03
[10], 0.00051 µM | 1.01
[10], 0.00152 µM | 1.03
[10], 0.00457 µM | 1.06
[10], 0.01372 µM | 1.05
[10], 0.04115 µM | 1.02
[10], 0.1235 µM | 1.01
[10], 0.3704 µM | 0.988
[10], 1.111 µM | 0.95
[10], 3.333 µM | 0.786
[10], 10 µM | 0.0216
[11], 0.00017 µM | 0.974
[11], 0.00051 µM | 0.983
[11], 0.00152 µM | 0.996
[11], 0.00457 µM | 0.998
[11], 0.01372 µM | 0.953
[11], 0.04115 µM | 0.867
[11], 0.1235 µM | 0.785
[11], 0.3704 µM | 0.787
[11], 1.111 µM | 0.659
[11], 3.333 µM | 0.307
[11], 10 µM | -0.023
[12], 0.00017 µM | 1.03
[12], 0.00051 µM | 1.02
[12], 0.00152 µM | 1.04
[12], 0.00457 µM | 1.04
[12], 0.01372 µM | 1.05
[12], 0.04115 µM | 1.08
[12], 0.1235 µM | 1.09
[12], 0.3704 µM | 1.11
[12], 1.111 µM | 0.961
[12], 3.333 µM | 0.466
[12], 10 µM | 0.108
